Experimental data published in patent US8614218B2, “Fused bicyclic pyrimidines” (Bayer Intellectual Property GmbH, priority 2007, dated 2013).

Legend:
Assay type in all cases: cell-based
A549 cells = test: Cellular proliferation/cytotoxicity assay (Alamar Blue), A549; conditions: Homo sapiens, 72 h, Alamar Blue (Resazurin), read-out: Anti-proliterative/Cytotoxic activity (A549 cells)
How it was run: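 OvCAR3 (10000 cells/well) or A549 (2000 cells/well) were dosed 24 h after seeding and exposed for 72 h at 37 °C, 5% CO2, in duplicate or more. Resazurin was added for 4 h and fluorescence read at 544/590 nm. Viability is relative to untreated 0.5% DMSO controls, with IC50 by non-linear regression.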

phospho-GSK3 (Ser9) = test: Cellular pGSK3 assay (phospho-GSK3 ELISA); conditions: Homo sapiens, MCF7 cells, 48 h incubation, read-out: Cellular pGSK3 pathway assay
Procedure: In order to study the cellular activity of the compounds according to the present invention, an ELISA-based assay has been established for the phosphorylated protein glycogen synthetase kinase 3 (GSK3). The assay is based on a solid phase sandwich ELISA that detects endogenous levels of phosphorylated GSK3 using a phospho-GSK3 (Ser9) specific antibody (BioSource International, Inc.; Catalog #KHO0461). After incubation with cell lysates, the coated antibody captures the phosphorylated GSK3 protein. Following extensive washing, GSK3 polyclonal antibody is added to detect the captured phospho-GSK3 protein. Secondary antibody (anti-rabbit IgG-HRP) is then used to recognize the bound detection antibody. After the second incubation and washing to remove all the excess anti-rabbit IgG-HRP, a substrate solution is added, which is acted upon by the bound enzyme to produce color. The intensity of this colored product is directly proportional to the concentration of GSK-3β [pS9] present in the original specimen. MCF7 cells (ATCC HTB-22) were seeded into 96 well fate bottom plates at a density of 10000 cells/well. After 24 h 1 μl each of the compound dilutions (test compounds were dissolved as 10 mM solutions in dimethylsulfoxide (DMSO) and subsequently diluted) were added into each well of the 96 well plates and incubated for 48 h at 37° C. in a humidified atmosphere containing 5% CO2. Cells were harvested and lysed in cell extraction buffer (10 mM Tris, pH 7.4, 100 mM NaCl, 1 mM EDTA, 1 mM EGTA, 1 mM NaF, 20 mM Na4P2O7, 2 mM Na3VO4, 1% Triton X-100, 10 vol % glycerol, 0.1 vol % SDS, 0.5 vol % deoxycholate, 1 mM phenylmethylsulfonylfluoride (PMSF)). The lysate were centrifuged for 10 min. at 4° C. and the supernatant were transferred to a new tube. 50 μl of sample diluent (standard diluent buffer, Biosource) were added and 100 μl of cell lysate transferred into the tube and vortexed. 100 μl of each diluted cell lysate were added to the appropriate ELISA well plate and incubated for 3 h at room temperature. The plates were washed 4 times with 1× wash buffer (Biosource). 50 μl of detection antibody (GSK3 (Ser9) detection antibody; BioSource) were added to each well and incubated for 30 min. at room temperature. The washing procedure was repeated between each step. 100 μl of HRP-linked secondary antibody (anti-mouse IgG HRP-linked antibody) were added to each well and incubated for 30 min. at room temperature. 100 μl of TMB substrate (0.05 vol % 3,3′,5,5′ tetramethylbenzidine, 0.1 vol % hydrogen peroxide, complex polypeptides in a buffered solution; Biosource) were added to each well and incubated for 30 min. at room temperature. Finally 100 μl of Stop solution (0.05 vol % α and β unsaturated carbonyl compound) were added to each well and the plate were shaked gently for a few seconds. The absorbance was measured at λ=450 nm (Wallac Victor2; Perkin Elmer, USA) within 30 min. after adding the stop solution.
The analysis of the data was performed using a statistical program (Excel; Microsoft, USA) and the IC50 of pGSK3 inhibition was determined.

phospho-Akt (Ser473) = test: Cellular PI3K/Akt pathway assay (phospho-Akt ELISA); conditions: Homo sapiens, MCF7 cells, β-Heregulin stimulated, 48 h incubation
Description: Cellular PI3K/Akt Pathway Assay
In order to study the cellular activity of the compounds according to the present invention, an Enzyme Linked Immunosorbent Assay (ELISA)-based assay has been used specific phospho-AKT. The assay is based on a Sandwich ELISA kit (PathScan™ Phospho-Akt1 (Ser473); Cell Signaling, USA; #7160). The ELISA Kit detects endogenous levels of phosphorylated Akt protein. A phospho-Akt (Ser473) antibody (Cell Signaling, USA; #9271) has been coated onto the microwells. After incubation with cell lysates, the coated antibody captures the phosphorylated Akt protein. Following extensive washing, Akt1 monoclonal antibody (Cell Signaling, USA; #2967) is added to detect the captured phospho-Akt1 protein. HRP-linked anti-mouse antibody (HRP: horseradish peroxidase; Cell Signaling, USA; #7076) is then used to recognize the bound detection antibody. HRP substrate (=3,3′,5,5′-tetramethylbenzidine (TMB); Cell Signaling, USA; #7160) is added to develop colour. The magnitude of optical density for this developed color is proportional to the quantity of phosphorylated Akt protein.
MCF7 cells (ATCC HTB-22) are seeded into 96 well fate bottom plates at a density of 10000 cells/well. 24 hours after seeding, the cells are serum starved using low-serum medium (IMEM media including 0.1% charcoal treated FCS (FCS: fetal calf serum)). After 24 hours 1 μl each of the compound dilutions (test compounds were dissolved as 10 mM solutions in dimethylsulfoxide (DMSO) and subsequently diluted) are added into each well of the 96 well plates and incubated for 48 h at 37° C. in a humidified atmosphere containing 5% CO2. To stimulate Akt phosphorylation, β-Heregulin (20 ng/ml β-HRG) is added in parallel to the compounds. Wells containing unstimulated control cells (no β-Heregulin stimulation) are incubated with or without the diluted compound. Wells containing untreated control cells (no compound) are filled with medium containing 0.5% v:v DMSO and are or are not stimulated with β-Heregulin.
Cells are harvested and lysed with brief sonification in 1× cell lysis buffer (20 mM Tris (pH7.5), 150 mM NaCl, 1 mM ethylene diaminetetraacetate (EDTA), 1 mM ethylene glycolbis(2-aminoethyl)-N,N,N′,N′-tetraacetic acid (EGTA), 1 vol % Triton X-100, 2.5 mM sodium pyrophosphate, 1 mM β-glycerolphosphate, 1 mM Na3VO4, 1 μg/ml leupeptin). The lysate is centrifuged for 10 min. at 4° C. and the supernatant is transferred to a new tube. 100 μl of sample diluent (0.1 vol % Tween-20, 0.1 vol % sodium azide in phosphate buffered saline (PBS)) are added to a microcentrifuge tube and 100 μl of cell lysate are transferred into the tube and vortexed. 100 μl of each diluted cell lysate are added to the appropriate ELISA well, and incubated overnight at 4° C. The plates are washed 4 times with 1× wash buffer (1 vol % tween-20, 0.33 vol % thymol, in PBS). Next 100 μl of detection antibody (Akt1 (2H10) monoclonal detection antibody; Cell Signaling, USA; #2967) are added to each well and incubation continued for 1 h at 37° C. The washing procedure is repeated between each step. 100 μl of secondary antibody (anti-mouse IgG HRP-linked antibody; Cell Signaling, USA; #7076) are added to each well and incubated for 30 min. at 37° C. Than, 100 μl of TMB substrate (0.05% 3,3′,5,5′ tetramethylbenzidine, 0.1% hydrogen peroxide, complex polypeptides in a buffered solution; Cell Signaling, USA; #7160) are added to each well and incubated for 30 min. at 25° C. Finally 100 μl of STOP solution (0.05 vol % α and β unsaturated carbonyl compound) are added to each well and the plate are shaked gently. The absorbance is measured at λ=450 nm (Wallac Victor2; Perkin Elmer, USA) within 30 min. after adding the STOP solution. The analysis of the data is performed using a statistical program (Excel; Microsoft, USA). Preferred compounds show an inhibitory activity towards Akt phosphorylation below 10 μM.

IC50 (phospho-GSK3 (Ser9)) [µM]	IC50 (phospho-Akt (Ser473)) [µM]	Compound	IC50 (A549 cells) [µM]
1 to 10	–	COc1c(-c2ccccc2)c(-c2ccc(CN3CCC(c4n[nH]c(-c5ccccn5)n4)CC3)cc2)nc2ccnn12 [Example 29, 7-Methoxy-6-phenyl-5-(4-{[4-(5-pyridin-2-yl-1H-1,2,4-triazol-3-yl)piperidin-1-yl]methyl}phenyl)pyrazolo[1,5-a]pyrimidine]	> 10
1 to 10	> 10	Cc1c(-c2ccccc2)c(-c2ccc(CN3CCC(c4n[nH]c(-c5ccccn5)n4)CC3)cc2)nc2nccn12 [Example 27, 5-methyl-6-phenyl-7-(4-{[4-(5-pyridin-2-yl-1H-1,2,4-triazol-3-yl)piperidin-1-yl]methyl}phenyl)imidazo[1,2-a]pyrimidine]	–
1 to 10	–	CC(C)c1nc2nc(-c3ccc(CN4CCC(c5n[nH]c(-c6ccccn6)n5)CC4)cc3)c(-c3ccccc3)cn2n1 [Example 28, 2-Isopropyl-6-phenyl-5-(4-{[4-(5-pyridin-2-yl-1H-1,2,4-triazol-3-yl)piperidin-1-yl]methyl}phenyl)[1,2,4]triazolo[1,5-a]pyrimidine]	< 10
